Test results taken from patent US12145920B2, “Lanthionine c-like protein 2 ligands, cells prepared therewith, and therapies using same” (NImmune Biopharma, Inc., priority 2019, dated 2024).

How the values were obtained:
[1] = test system: influenza A (H1N1); experiment: Mouse model of influenza A virus infection; type: in vivo, C57BL/6 mice
Procedure: Mouse model. Eight- to ten-week old wild type C57BL/6 mice were anesthetized by isoflurane inhalation. Mice were infected with influenza A (H1N1) intranasally at a challenge titer of 350 pfu/mouse. Mice were treated daily with BT-63 at a dose of 20 mg/kg orally via gavage. Mice were weighed and scored daily over 12 days. Mice were euthanized at days 12 to measure immune responses by flow cytometry in the lungs.
Flow Cytometry. Lungs will be chopped into small pieces and collected into RPMI/FBS/CaCl2 buffer containing collagenase (300 U/mL) and DNase (50 U/mL) for digestion. Tissues will be digested for 60 to 90 minutes under stirring at 37° C. Resultant cellular suspensions will be filtered through 100 μm strainers, centrifuged (300×g, 8 min), and washed in fresh RPMI. Red blood cells will be lysed by hypotonic lysis and removed by filtration. Cells will be washed and plated for flow cytometry staining. Cells will be labeled with mixtures of extracellular (CD45, CD3, CD4, CD8, CD19, NK1.1, CD25, F4/80, CD11b, CD11c, Gr1, CX3CR1, CD64, SiglecF, Ly6C) and intracellular (Tbet, RORγT, FOXP3, IFNγ, IL6, IL10, IFNb) antibodies in a sequential live staining in 96-well plates. Data will be acquired using a FACS Celesta flow cytometer with FACSDiva software.

[2] = test system: resiquimod-treated C57BL6 mice; experiment: TLR7/9 (resiquimod) induced mouse model of SLE; type: in vivo
Procedure: Resiquimod model. Resiquimod was prepared in a 1:3 ethanol:acetone mixture to provide 85 micrograms of resiquimod to each mouse. Resiquimod solution was well mixed and applied to the ear of C57BL6 mice three times weekly over a 2-week period. Mice were monitored for signs of disease daily.
Treatment administration. BT-63 was prepared within a 0.5% methylcellulose (12-15 cP) solution. Dosage used was 20 mg/kg delivered once daily. Mice were weighed on a weekly basis to update dosage formulation. Dosage was calculated based off mean body weights for each gender. Oral dosage was delivered by orogastric gavage of dosage in 0.2 mL volume.
Immunological analysis. Blood was collected by cardiac puncture into EDTA tube. Plasma was separated following centrifugation and assayed by ELISA for anti-dsDNA antibodies. Urine was collected for assay for albumin content to test for kidney function.
Spleens were excised, crushed and filtered to provide a cellular suspension. Red blood cells were lysed. Cells were labeled with mixtures of extracellular (CD45, CD3, CD4, CD8, CD19, NK1.1, CD25, F4/80, CD11b, Gr1, CX3CR1, CD64) and intracellular (Tbet, BCL6, FOXP3, IFNγ, IL6, IL10) antibodies in a sequential live staining in 96-well plates in preparation for flow cytometry. Data was captured on a BD FACS Celesta and analyzed using FacsDiva.

[3] = test system: LANCL2 deficient CD4+ T cells; experiment: Immune effects in CD4+ splenocytes, flow cytometry (LANCL2 deficient); type: cell-based, C57BL/6 mice; conditions: in the absence of LANCL2, 0.1, 1 and 10 μM
Description: Cell culture. Spleens were excised from C57BL/6 mice and assessed in wild-type and LANCL2 deficient states. Spleens were crushed between the frosted ends of microscope slides and filtered to provide a cellular suspension. Red blood cells were lysed through hypotonic lysis. Remaining cells were washed and filtered. CD4+ T cells were enriched within the suspension using magnetic sorting based negative selection. Cells were collected and plated within 96 well plates coated with anti-CD3 and cultured in the presence of BT-63 at 0, 0.1, 1 and 10 micromolar or BT-104A, BT-104B, or BT-104C at 0.1 micromolar for 48 h. During the last 6 h of culture, cells were stimulated with phorbol 12-myristate-13-acetate (PMA) and ionomycin.
Immunological analysis. Cells were collected from 96 well plates and stained with a cocktail of antibodies for immunophenotyping by flow cytometry. Culture supernatant was collected and assayed for cytokine concentrations by cytometric bead array. Data was captured on a BD FACS Celesta and analyzed using FacsDiva.

[4] = Pharmacokinetics after oral dosing in mice, plasma LC-MS/MS; type: in vivo, C57BL/6 mice; parameters: exposure: unit not given here
Procedure: C57BL/6 mice were dosed orally with 10 and 40 mg/kg of BT-63 by oral gavage of methylcellulose solution containing BT-63. After gavage, blood was collected at 0.5, 1, 2, 4, 6, 8, 12 and 24 hours after treatment. Plasma was collected from blood by centrifugation. BT-63 was extracted from plasma and quantified by LC-MS/MS.

[5] = test system: NZB/W F1 mice; experiment: NZB/W F1 genetic mouse model of SLE (BT-63); type: in vivo
Procedure: NZB/W F 1 model. Twenty-four-week-old, female NZB/W F1 mice were randomized into vehicle or BT-63-treated arms based on baseline urine protein levels (n=10). BT-63 was orally administered daily at 20 mg/kg for 12 weeks. Mice were weighed on a weekly basis to update dosage formulation. Dosage was calculated based off mean body weights.
Immunological analysis. Blood was collected by cardiac puncture into EDTA tube. Plasma was separated following centrifugation and assayed by ELISA for anti-dsDNA antibodies and IFN-α. Urine was collected to assay for protein content to test for kidney function. Spleens were excised, crushed and filtered to provide a cellular suspension. Red blood cells were lysed. Cells were labeled with mixtures of extracellular (CD45, CD3, CD4, CD8, CD19, CD138, CD25, MHCII, CD11b, CD11c, CXCR3, IgD, IgM) and intracellular (BCL6, FOXP3, IL21, IL6, IL10) antibodies in a sequential live staining in 96-well plates in preparation for flow cytometry. Data was captured on a BD FACS Celesta and analyzed using FacsDiva.

[6] = lung, day 12 post-infection, 20 mg/kg
[7] = lungs, day 12 post-infection, 20 mg/kg
[8] = 2 weeks of oral treatment, 20 mg/kg
[9] = 36 weeks of age (12 weeks of treatment), 20 mg/kg
[10] = spleen, 12 weeks oral 20 mg/kg, relative to vehicle

Structure (SMILES): O=C(CN1CCN(C(=O)c2cccc(-c3nc4ccccc4[nH]3)n2)CC1)c1ccccc1 [BT-63, 2-(4-(6-(1H-benzo[d]imidazol-2-yl)picolinoyl)piperazin-1-yl)-1-phenylethanone]
- increase in survival compared to vehicle ([1]; 12 days post-infection, 20 mg/kg oral daily): over 50%
- disease activity index ([1]; day 3 through day 12 post-infection, 20 mg/kg oral vs vehicle): significantly reduces
- IL10+ CD8+ T cells [1, 6]: increases
- alveolar macrophages [1, 6]: increases
- proportions of TNFa+ CD4+ T cells [1, 7]: decreased
- proportions of neutrophils [1, 7]: decreased
- concentration of anti-dsDNA antibodies in plasma [2, 8]: reduces
- urine albumin content [2, 8]: reduction
- IFNγ+ CD8+ T cells ([2]; spleen, 2 weeks, 20 mg/kg oral): reduced
- IL6+ cells ([2]; spleen, 2 weeks, 20 mg/kg oral): reduced
- effects on IFNγ+, TNFa+ and IL10+ FOXP3+ CD4+ T cells [3]: lost
- increase in maximum plasma concentration compared to BT-11 ([4]; equal oral doses (10 mg/kg)): > 100 fold
- area under the curve exposure ([4]; oral 10 mg/kg): 1055 ng·h/mL
- maximum plasma concentration ([4]; oral 10 mg/kg): 585 ng/mL
- exposure ([4]; oral 40 mg/kg): 11552
- maximum plasma concentration ([4]; oral 40 mg/kg): 4465 ng/mL
- body weight change from baseline (weight loss) ([5]; 12 weeks oral 20 mg/kg): protected mice from weight loss
- proteinuria score ([5]; 12 weeks oral 20 mg/kg, from baseline): prevented worsening
- plasma IFN-α levels [5, 9]: reduced
- plasma anti-dsDNA levels [5, 9]: reduced
- CXCR3+ plasma cells ([5]; spleen, 12 weeks oral 20 mg/kg): moderate reduction
- follicular B cells ([5]; spleen, 12 weeks oral 20 mg/kg): moderate reduction
- plasma cells ([5]; spleen, 12 weeks oral 20 mg/kg): moderate reduction
- CD25+ FOXP3+ regulatory CD4+ T cells [5, 10]: greater reductions
- IL6+ myeloid cells [5, 10]: greater reductions
- IL21+ BCL6+ follicular helper T cells [5, 10]: greater reductions
